Data reported in patent US9241972B2, “Use of Wnt agents to prevent hypoxic injury” (THE BOARD OF TRUSTEES OF THE LELAND STANFORD JUNIOR …, priority 2011, dated 2016).
Entries after “also recorded” stand apart in the source; their conditions may differ.

Key:
[1] = system: β-catenin/TCF signaling; test: β-catenin/TCF luciferase reporter assay in AML12 hepatocytes; format: cell-based
Protocol: (§1) The differentiated non-transformed mouse hepatocyte cell line AML12 (ATCC Inc.) was cultured in Dulbecco's […] (DMEM)/F-12 media (1:1) supplemented with 10% fetal bovine serum (FBS), 1% penicillin-streptomycin antibiotics and 5 μg/ml insulin, 5 μg/ml transferrin, 5 ng/ml selenium as previously described (62). The human hepatocellular carcinoma cell lines Huh7 and HepG2 were grown in DMEM media containing 10% FBS and 1% penicillin-streptomycin antibiotics. Media was purchased from Hyclone (Logan, Utah). All other medium components were purchased from Invitrogen (Carlsbad, Calif.). Cultures were maintained at 37° C. in a hunified 5% CO2 atmosphere. For hypoxic conditions, cells were grown at 1% O2 in a custom-designed incubator (XVivo Hypoxia Chamber; BioSpherix) for 24 hrs.
Western Blot Analysis and Immunoprecipitation. Cells were treated with actinomycin D and TNFα, hydrogen peroxide (H2O2), hypoxia 1% for 24 hours or pre-treated with N-acetylcysteine (NAC), cobalt chloride (CoCl2), YC-1 (Alexis Biochemicals, San Diego, Calif.), Resveratrol or nicotinamide (NAM) as described in the figure legends. All other chemicals were purchased from Sigma Aldrich (Sigma Aldrich, St. Louis, Mo.). Total proteins (30 μg) were lysed with RIPA lysis buffer and separated by sodium dodecylsulfate-polyacrylamide gel electrophoresis. After transfer, the polyvinylidene diflouride membrane was blocked with 5% non-fat milk in Tris-buffered saline with 0.1% Tween-20 (TBST) and then incubated with primary antibodies at 4° C. overnight. After washing, the horseradish peroxidase-conjugated secondary antibodies were added for 30 minutes at room temperature. Antibody binding was visualized by enhanced chemiluminescence reagent (GE Healthcare BioSciences, Buckinghamshire, United Kingdom).
For the reporter assay, cells were seeded in a 24-well plate under triplicate conditions at 80% confluency. Cells were transfected the next day with plasmid pMegaTOPFLASH and pMegaFOPFLASH (β-catenin reporter construct containing LEF1/TCF binding sites) or 5×-HRE (hypoxia response element) and 1 μg of pEF1/Myc-His/LacZ plasmid using Lipofectamine 2000 (Invitrogen, Carlsbad, Calif.). Six hours after transfection, the media was replaced with DMEM/F12 media. 24 hours after transfection, cells were either pre-treated with drugs for one hour or incubated in hypoxia 1% for 24 hours as mentioned in the figure legends. After 2 days, luciferase and galactosidase expression were measured using the Dual-Light Reporter Gene Assay (Applied Biosystems, Foster City, Calif.) according to the manufacturer's instructions. Luciferase activity was normalized to β-galactosidase activity as an internal transfection control.

[2] = system: AML12 hepatocytes; test: Intracellular ROS levels by DCF-DA flow cytometry; format: cell-based, mouse; conditions: one hour pre-treatment with NAC (2 mmol/L)
Protocol: as §1, with “hrs. The fluorescent probe, dichlorofluorescein diacetate (DCF-DA) (Invitrogen, Carlsbad, Calif.), was used to monitor the intracellular generation of ROS induced by hypoxia. After cells were incubated with 10 μmol/l DCF-DA for 30 min as previously described (67), cells were trypsinized, pelleted by centrifugation and resuspended in phosphate-buffered saline for FACS analysis by using a FACS LSRII flow cytometer (Becton Dickinson, San Diego, Calif.). The oxidized form of DCF-DA was excited at 488 nm and detected at 530 nm. Data were analyzed using CellQuest software.” for “hrs.”

[3] = system: HIF-1; test: HIF-1 / HRE luciferase reporter assay (and HIF-1α immunoblot) in AML12 hepatocytes; format: cell-based, mouse
Protocol: as §1
Western Blot Analysis and Immunoprecipitation. […]
For the reporter assay, cells were seeded in a 24-well plate under triplicate conditions at 80% confluency. […] After 2 days, luciferase and galactosidase expression were measured using the Dual-Light Reporter Gene Assay (Applied Biosystems, Foster City, Calif.) according to the manufacturer's instructions. […]

[4] = system: AML12 hepatocytes; test: Apoptosis under hypoxia by MTT assay and immunoblot for caspase-cleaved K18Asp237; format: cell-based, mouse; conditions: YC-1 pre-treatment (100 μmol/L) for 1 hour
Protocol: Western Blot Analysis and Immunoprecipitation. Cells were treated with actinomycin D and TNFα, hydrogen peroxide (H2O2), hypoxia 1% for 24 hours or pre-treated with N-acetylcysteine (NAC), cobalt chloride (CoCl2), YC-1 (Alexis Biochemicals, San Diego, Calif.), Resveratrol or nicotinamide (NAM) as described in the figure legends. All other chemicals were purchased from Sigma Aldrich (Sigma Aldrich, St. Louis, Mo.). Total proteins (30 μg) were lysed with RIPA lysis buffer and separated by sodium dodecylsulfate-polyacrylamide gel electrophoresis. […]
For the assessment of cell proliferation and survival, a commercially available MTT (3-(4,5-dimethylthiazol-2-yl)-2,5-diphenyltetrazolium bromide) cell proliferation assay (Roche Applied Science, Indianapolis, Ind.) was used according to the manufacturer instructions. Absorbance was measured at 570 nm using a spectrophotometer.
Apoptosis was measured by western blot using Asp237 antibody that recognizes caspase-cleaved keratin18 or by using Caspase-Glo 3/7 Assay following the manusfacturer's instructions (Promega Corporation, Madison, Wis.). […] Caspase-Glo 3/7 reagent was added to each well in a 1:1 ratio and incubated for one hour before measuring luminescence using a LB96B dual injector luminometer (Berthold Technologies, Oak Ridge, Tenn.).

Compound: CC(=O)N[C@@H](CS)C(=O)O [NAC, N-acetylcysteine]
- β-catenin/TCF signaling (reporter activity) under hypoxia ([1]; AML12 hepatocytes, hypoxia, one hour pre-treatment with NAC (2 mmol/L)): diminish the suppressive effect of hypoxia derived ROS on β-catenin/TCF signal transduction; also recorded: prevents hypoxia-induced inhibition of β-catenin/TCF signaling
- Intracellular ROS levels under hypoxia [2]: decrease intracellular ROS; also recorded: significantly prevents ROS production under hypoxia

Compound: Oc1ccc(C=Cc2cc(O)cc(O)c2)cc1 [resveratrol]
- β-catenin/TCF signal transduction (Sirt1 agonist) ([1]; hepatocytes, Sirt1 agonist): significantly inhibited β-catenin/TCF signal transduction

Compound: [Cl][Co][Cl] [CoCl2, cobalt chloride]
- HIF-1α induction (HRE reporter assay and immunoblot) ([3]; CoCl2 (150 μmol/L)): HIF-1α induction was verified
- β-catenin/TCF reporter activity after HIF-1α stabilization ([1]; AML12 hepatocytes, CoCl2 (150 μmol/L) under normoxia or hypoxia): significant reduction in TCF signal transduction; also recorded: reduced

Compound: NC(=O)c1cccnc1 [NAM, nicotinamide]
- Hypoxia-induced suppression of TCF signaling (Sirt1 inhibition) ([1]; hepatocytes under hypoxia, addition of Sirt1 inhibitor): abolished this effect

Compound: OCc1ccc(-c2nn(Cc3ccccc3)c3ccccc23)o1 [YC-1, 3-(5′-hydroxymethyl-2′-furyl)-1-benzylindazole]
- HIF-1 signal activity (HRE reporter) under hypoxia ([3]; hypoxia, pre-treatment with YC-1 (100 μmol/L) for 1 hour): significantly reduced HRE activity; also recorded: inhibits the hypoxia-induced increase in HIF-1 signal activity
- Apoptosis under hypoxia (MTT assay, caspase-cleaved K18Asp237) [4]: induced significant apoptosis; also recorded: more apoptosis
